In article PMC8689140 (Frontiers in Pharmacology, 2021):

Tests used:
[1] = Metabolite identification in liver microsomes from humans, dogs and rats (stated across species); type: in vitro ADME, human, dog, rat; conditions: liver microsomes from humans, rats, and dogs
Procedure: Human, rat and dog liver microsomes were carefully thawed on ice prior to the experiment and diluted to 1 mg/ml in100 mM sodium phosphate buffer (pH 7.4) containing 10 mM magnesium chloride. […] After 3 min of preincubation at 37°C, the reactions were initiated by adding 20 µL of NADPH (20 mM) and then incubated at 37°C in a shaking water bath for 60 min. All samples were prepared in duplicates. The reactions were terminated by adding 600 µl of ice-cold acetonitrile and stored at −20°C until analysis. Control samples without NADPH and 0-time point samples were included. As a positive control, testosterone (10 µM) which was metabolized to produce the hydroxylation metabolite was used as a substrate to confirm the activity of the incubation system. Next, the samples were centrifuged at 13,000 rpm for 10 min, the supernatant was separated and evaporated to dryness under a nitrogen stream. The residue was resuspended in 100 μl of acetonitrile, after centrifugation, the supernatants were analyzed by UPLC–UV-HRMS.
The analysis was performed on Acquity UPLC system coupled with a diode array detector (Waters Corporation, United States) and Q Exactive™ Orbitrap HRMS (Thermo Electron Corporation, United States). […]
HRMS were operated at positive ion mode using a heating electrospray ionization source (HESI). […] The metabolites were detected by full MS/dd-MS^2 analysis from m/z 100 to m/z 1,000. […]

[2] = system: dopamine receptors, serotonin receptors, adrenergic receptors, dopamine transporter, norepinephrine transporter, five serotonin transporter; test: Multi-target activity screen of SpectrumScreen Panel (Eurofins screen); conditions: serotonin transporters, and so on
[3] = system: locomotor activity of rats; test: Time-dependent effects on locomotor activity in rats; type: in vivo, rat; conditions: SD rats, 1.3 μmol/kg
Procedure: Rats were placed into the detection box after a single intragastric administration at different time points, and two rats from each group were used in each round of the experiment. The TopScan monitoring system was used to record and analyze the locomotor activity of the rats in different periods (0–1, 1–2, 3–4, 5–6, 6–7, and 7–8 h) after administration, and the RR was calculated as previously described.

## COc1cc2c(cc1OCC(F)(F)F)CCN1CC(CC(C)C)C(O)CC21 (single isomer, unassigned; (+)) [(+)-13e, (+)-9-(2,2,2-trifluoroethoxy)-α-dihydrotetrabenazine]
[1]
  O-detrifluoroethylation at the nine position: did not occur
[2]
  effects in multi-target activity screen: no effects
[3]
  duration of significant inhibition of locomotor activity: at least 8 h
